pIC50: −log10 of the molar value. Like-named read-outs stand apart in the source and are kept apart here.
What was measured:
[1] = Stability test in liver microsomes, mouse; format: in vitro ADME; details: for half-life at 1 μM: 0.5 mg/mL
Method: (§1) A stability of the compound of the present application in liver microsomes of human, rat and mouse was measured.
(§2) 3.1 A buffer and a liver microsome were prepared into an incubation solution according to the following table:
(§3) 3.2 The following two experiments were carried out respectively: a) incubation system added with coenzyme factor NADPH: 25 μL of NADPH (10 mM) was added into an incubation solution (mainly comprising a liver microsome and a phosphate buffer), so that final concentrations of the liver microsome and the NADPH were 0.5 mg/mL and […] respectively; and b) incubation system without coenzyme factor NADPH: 25 μL of phosphate buffer (100 mM) was added into the incubation solution, so that the final concentration of the liver microsome was 0.5 mg/mL. The incubation systems above were preheated at 37° C. for 10 minutes respectively.
(§4) 3.3 2.5 μL of positive control compound or a tested compound solution (100 μM) was added into the incubation systems described in “step 3.2” above respectively for reaction, and the positive control compound was verapamil (purchased from Sigma), so that a final concentration of the tested compound of the present application or the positive control compound was 1 μM. The incubation solution added with the compound was incubated in water at 37° C. in batches.
(§5) 3.4 30 μL of aliquot was taken from a reaction solution after 0.5 minute, 5 minutes, 15 minutes, 30 minutes and 45 minutes respectively, and the reaction was terminated by adding 5 times volume of cold acetonitrile containing 200 nM caffeine and 100 nM tolbutamide. The aliquot was centrifuged at a gravity acceleration of 3,220 g for 40 minutes, and 100 μL of supernatant was mixed with 100 μL of ultrapure water, and then used for LC-MS/MS analysis.
(§6) A peak area was determined by an extracted ion chromatogram. A slope value k was determined by linear regression of a remaining percentage of a parent drug relative to […] an incubation time curve.
(§7) In-vitro half-life periods (t1/2) were respectively calculated and determined according to the slope value, and an average value of the in-vitro half-life periods was converted into an in-vitro intrinsic clearance rate (CLint, represented by μL/min/mg protein).

Ba/F3 LMNA-NTRK1-G595R = assay: In-vitro cell viability (CTG), NTRK mutant cells; format: cell-based; details: Mus musculus, read-out: Ba/F3 LMNA-NTRK1-G595R IC50
Method: (§8) Hefei Precedo Biomedical Technology Co., Ltd. was commissioned to complete the testing example, and NTRK mutant cells used were constructed by this company.
(§9) Inhibitory effects of the compound of the present application on growth of three NTRK mutant cells (Ba/F3 LMNA-NTRK1-G667C, Ba/F3 EVT6-NTRK3-G623R and Ba/F3 LMNA-NTRK1-G595R) were measured.
(§10) Cells in logarithmic growth phase were collected and counted by a blood platelet counter, a cell concentration was adjusted to 3 to 6×10^4 cell/mL, 90 μL of cell suspension was added into a 96-well plate, and cells in the 96-well plate were cultured at 37° C. under 5% CO2 and 95% humidity overnight.
(§11) The to-be-tested compound was prepared into a 10 times drug solution in a medium containing 1% DMSO, with […] and the drug solution was diluted by 3 times in sequence to obtain drug solutions with 9 concentrations in total. […] 10 μL of prepared drug solution was added into each well of the 96-well plate in which the cells were inoculated. Then, 90 μL of medium containing 1% DMSO was added to obtain a drug solution with a highest concentration of 1 μM, and the drug solution was diluted by 3 times in sequence to obtain drug solutions with 9 concentrations in total. A final concentration of DMSO in each well was 0.1%, and three multiple wells were provided for the drug of each concentration. The cells in the 96-well plate in which the drug has been added were cultured at 37° C. under 5% CO2 and 95% humidity for 72 hours, and then subjected to CTG analysis.
(§12) An equal volume of CTG solution was added into each well, the 96-well plate was placed at room temperature for 20 minutes to stabilize a luminescence signal, and a luminescence value was read.
(§13) Data was analyzed by GraphPad Prism 7.0 software, and fitted by nonlinear S-curve regression to obtain a dose-effect curve, from which an IC50 value was calculated. Cell survival rate (%)=(Lum to-be-tested drug−Lum medium control)/(Lum cell control−Lum medium control)×100%.

Ba/F3 LMNA-NTRK1-G667C = assay: In-vitro cell viability (CTG), NTRK mutant cells; format: cell-based; details: Mus musculus, read-out: Ba/F3 LMNA-NTRK1-G667C IC50
Method: as §8, §9, §10, §11, §12, §13

Ba/F3 EVT6-NTRK3-G623R = assay: In-vitro cell viability (CTG), NTRK mutant cells; format: cell-based; details: Mus musculus, read-out: Ba/F3 EVT6-NTRK3-G623R IC50
Method: as §8, §9, §10, §11, §12, §13

TRKC(G623R) = TRKC(G623R) (Homo sapiens (Human), UniProt Q16288, G623R); assay: Kinase inhibitory activity (Caliper mobility shift), TRKC(G623R); format: biochemical
Method: Sundia Meditech (Shanghai) Co., Ltd. was commissioned to complete the testing example.
3.1 A tested compound was accurately weighed and dissolved in 100% DMSO to prepare into a 10 mM solution.
250 nL of the compound of 100 times final concentration was transferred to a reaction plate OptiPlate-384F by a dispenser Echo 550.
3.2.3 A kinase solution of 2.5 times final concentration was prepared with 1×kinase buffer.
3.2.4 10 μL of kinase solution of 2.5 times final concentration was added into a compound well and a positive control well respectively; and 10 μL of 1×kinase buffer was added into a negative control well.
3.2.5 The reaction plate was shaken and mixed evenly, and then incubated at room temperature for 10 minutes.
3.2.6 Mixed solutions of ATP and kinase substrate 22 of 5 times and 3 times final concentrations were prepared with 1×kinase buffer.
3.2.7 15 μL of mixed solution of ATP and substrate of 5 times or 3 times final concentration was added.
3.2.8 The 384-well plate was centrifuged at 1,000 rpm for 30 seconds, shaken and mixed evenly, and then incubated at room temperature for corresponding time.
3.2.9 The kinase reaction was terminated.
3.2.10 A conversion rate was read by the microplate reader Caliper EZ Reader.
Calculation Formula Inhibition rate %=(conversion rate % maximum−conversion rate % sample)/(conversion rate % maximum−conversion rate % minimum)×100
wherein the conversion rate % sample was: a reading number of a conversion rate of a sample; the conversion rate % minimum was: an average value of the negative control well, which represented a reading number of a conversion rate without an enzyme activity well; and the conversion rate % maximum was: an average value of a ratio of the positive control well, which represented a reading number of a conversion rate without a compound inhibition well.
Fitting of dose-effect curve: a log value of concentration was used as an X axis, a percentage inhibition rate was used as a Y axis, and the dose-effect curve was fitted by a log (inhibitor) vs. response-variable slope of the analysis software GraphPad Prism 5 (four-parameter model fitting), so as to obtain an IC50 value of each compound on enzyme activity.

TRKA(G595R) = TRKA(G595R) (Homo sapiens (Human), UniProt P04629, G595R); assay: Kinase inhibitory activity (Caliper mobility shift), TRKA(G595R); format: biochemical
Method: (§14) […] (Shanghai) Co., Ltd. was commissioned to complete the testing example. […] 3.1 A tested compound was accurately weighed and dissolved in 100% DMSO to prepare into a 10 mM solution. […] 3.2.3 A kinase solution of 2.5 times final concentration was prepared with 1×kinase buffer. […] 3.2.5 The reaction plate was shaken and mixed evenly, and then incubated at room temperature for 10 minutes. 3.2.6 Mixed solutions of ATP and kinase substrate 22 of 5 times and 3 times final concentrations were prepared with 1×kinase buffer. 3.2.7 15 μL of mixed solution of ATP and substrate of 5 times or 3 times final concentration was added. 3.2.8 The 384-well plate was centrifuged at 1,000 rpm for 30 seconds, shaken and mixed evenly, and then incubated at room temperature for corresponding time. 3.2.9 The kinase reaction was terminated. 3.2.10 A conversion rate was read by the microplate reader Caliper EZ Reader. Calculation Formula Inhibition rate %=(conversion rate % maximum-conversion rate % sample)/(conversion rate % maximum-conversion rate % minimum)×100 wherein the conversion rate % sample was: a reading number of a conversion rate of a sample; the conversion rate % minimum was: an average value of the negative control well, which represented a reading number of a conversion rate without an enzyme activity well; and the conversion rate % maximum was: an average value of a ratio of the positive control well, which represented a reading number of a conversion rate without a compound inhibition well.

[2] = Stability test in liver microsomes, human; format: in vitro ADME; details: for half-life at 1 μM: 0.5 mg/mL
Method: as §1, §2, §3, §4, §5, §6, §7

[3] = Stability test in liver microsomes, rat; format: in vitro ADME; details: for half-life at 1 μM: 0.5 mg/mL
Method: as §1, §2, §3, §4, §5, §6, §7

TRKa = TRKa (Homo sapiens (Human), UniProt P04629); assay: Kinase inhibitory activity (Caliper mobility shift), TRKa; format: biochemical
Method: as §14

Chain of TRKC(G623R) (Q16288 32-839 G623R): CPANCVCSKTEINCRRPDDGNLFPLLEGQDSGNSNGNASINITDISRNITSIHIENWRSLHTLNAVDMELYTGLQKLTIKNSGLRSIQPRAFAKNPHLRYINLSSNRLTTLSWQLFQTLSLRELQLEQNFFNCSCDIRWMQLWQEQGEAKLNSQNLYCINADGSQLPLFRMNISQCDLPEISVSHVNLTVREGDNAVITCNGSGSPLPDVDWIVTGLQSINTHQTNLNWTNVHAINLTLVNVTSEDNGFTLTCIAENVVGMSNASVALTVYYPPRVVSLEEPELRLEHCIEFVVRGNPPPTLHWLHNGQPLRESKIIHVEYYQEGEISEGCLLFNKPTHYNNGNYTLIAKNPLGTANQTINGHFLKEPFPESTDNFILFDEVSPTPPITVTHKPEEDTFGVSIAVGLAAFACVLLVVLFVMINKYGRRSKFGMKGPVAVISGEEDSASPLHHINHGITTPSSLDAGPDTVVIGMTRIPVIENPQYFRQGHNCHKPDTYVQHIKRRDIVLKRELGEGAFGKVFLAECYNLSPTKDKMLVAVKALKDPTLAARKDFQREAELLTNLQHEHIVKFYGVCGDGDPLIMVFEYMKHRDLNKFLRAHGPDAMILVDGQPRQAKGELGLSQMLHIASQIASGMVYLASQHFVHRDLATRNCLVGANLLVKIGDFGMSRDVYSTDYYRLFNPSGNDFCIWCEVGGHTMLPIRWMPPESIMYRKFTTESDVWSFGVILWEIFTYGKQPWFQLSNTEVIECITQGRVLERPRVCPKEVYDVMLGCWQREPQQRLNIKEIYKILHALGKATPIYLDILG
Chain of TRKa (P04629 33-796): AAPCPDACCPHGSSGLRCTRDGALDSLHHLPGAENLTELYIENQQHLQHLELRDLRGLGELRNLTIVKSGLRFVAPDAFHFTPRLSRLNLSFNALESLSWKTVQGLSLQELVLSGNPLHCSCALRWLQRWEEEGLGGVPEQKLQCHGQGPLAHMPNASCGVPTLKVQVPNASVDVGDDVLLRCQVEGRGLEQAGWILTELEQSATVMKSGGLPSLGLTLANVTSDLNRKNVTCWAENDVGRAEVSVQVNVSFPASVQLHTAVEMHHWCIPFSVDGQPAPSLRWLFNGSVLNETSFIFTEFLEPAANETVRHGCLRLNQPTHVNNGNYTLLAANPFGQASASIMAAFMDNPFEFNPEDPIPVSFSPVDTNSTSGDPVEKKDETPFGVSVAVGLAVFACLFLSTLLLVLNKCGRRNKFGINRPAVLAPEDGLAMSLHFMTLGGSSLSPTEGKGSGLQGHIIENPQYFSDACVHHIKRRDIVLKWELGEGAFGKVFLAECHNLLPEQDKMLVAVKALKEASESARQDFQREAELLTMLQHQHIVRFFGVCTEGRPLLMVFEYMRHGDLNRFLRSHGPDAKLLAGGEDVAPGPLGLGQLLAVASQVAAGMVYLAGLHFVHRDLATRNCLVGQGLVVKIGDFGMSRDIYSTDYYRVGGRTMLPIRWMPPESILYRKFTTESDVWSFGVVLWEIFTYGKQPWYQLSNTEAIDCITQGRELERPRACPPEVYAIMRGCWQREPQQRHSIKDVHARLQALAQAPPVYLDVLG
Chain of TRKA(G595R) (P04629 33-796 G595R): as the sequence (P04629 33-796) above, with G563R counted along it

C[C@@H]1CCc2ncc(F)cc2[C@H]2CCCN2c2nc3c(cnn3cc2F)C(=O)N1 [Example 1]
microsomal CLint at 1 μM [1]: 82.7 µL/min/mg
half-life at 1 μM [1]: 16.8 min
% Remaining(45 min) [1]: 16.15%
pIC50 (Ba/F3 LMNA-NTRK1-G595R; BaF3, 72 h): 7.89
pIC50 (Ba/F3 LMNA-NTRK1-G667C; BaF3, 72 h): 8.23
pIC50 (Ba/F3 EVT6-NTRK3-G623R; BaF3, 72 h): 6.72
pIC50 (TRKC(G623R)): 8.43
pIC50 (TRKA(G595R)): 8.60
microsomal CLint at 1 μM [2]: 170 µL/min/mg
half-life at 1 μM [2]: 8.17 min
% Remaining(45 min) [2]: 4.24%
microsomal CLint at 1 μM [3]: 189 µL/min/mg
half-life at 1 μM [3]: 7.35 min
% Remaining(45 min) [3]: 3.30%
pIC50 (TRKa): 9.21

C[C@H]1Nc2nc3c(cnn3cc2F)C(=O)NC2CC(C2)Oc2ncccc21 [Example 5, (3^1S,3^3S,6^3E,6^4E,8R)-6^6-fluoro-8-methyl-2-oxo-4,7-diaza-6(3,5)-pyrazolo[1,5-a]pyrimidine-1(2,3)-pyridine-3(1,3)-cyclobutylcyclooctane-5-one]
pIC50 (Ba/F3 LMNA-NTRK1-G595R; BaF3, 72 hours, CTG): < 6.00
pIC50 (Ba/F3 LMNA-NTRK1-G667C; BaF3, 72 hours, CTG): < 6.00
pIC50 (Ba/F3 EVT6-NTRK3-G623R; BaF3, 72 hours, CTG): < 6.00
pIC50 (TRKC(G623R)): < 6.00
pIC50 (TRKA(G595R)): 6.25
pIC50 (TRKa): 6.90

C[C@H]1Nc2ccn3ncc(c3n2)C(=O)N[C@H]2C[C@H](C2)Oc2ncccc21 [Example 4, (3^1S,3^3S,6^3E,6^4E,8R)-8-methyl-2-oxo-4,7-diaza-6(3,5)-pyrazolo[1,5-a]pyrimidine-1(2,3)-pyridine-3(1,3)-cyclobutylcyclooctane-5-one]
pIC50 (Ba/F3 LMNA-NTRK1-G595R; BaF3, 72 hours, CTG): < 6.00
pIC50 (Ba/F3 LMNA-NTRK1-G667C; BaF3, 72 hours, CTG): < 6.00
pIC50 (Ba/F3 EVT6-NTRK3-G623R; BaF3, 72 hours, CTG): < 6.00
pIC50 (TRKC(G623R)): < 6.00
pIC50 (TRKA(G595R)): < 6.00
pIC50 (TRKa): 6.49

C[C@H]1Nc2ccn3nc(F)c(c3n2)C(=O)N[C@H]2C[C@H](C2)Oc2ncc(F)cc21 [Example 6, (3^1S,3^3S,6^3Z,6^4E,8R)-1^5,6^2-difluoro-8-methyl-2-oxo-4,7-diaza-6(3,5)-pyrazolo[1,5-a]pyrimidine-1(2,3)-pyridine-3(1,3)-cyclobutylcyclooctane-5-one]
pIC50 (Ba/F3 LMNA-NTRK1-G595R; BaF3, 72 hours, CTG): 6.94
pIC50 (Ba/F3 LMNA-NTRK1-G667C; BaF3, 72 hours, CTG): 7.40
pIC50 (Ba/F3 EVT6-NTRK3-G623R; BaF3, 72 hours, CTG): 6.27
pIC50 (TRKC(G623R)): 8.09
pIC50 (TRKA(G595R)): 8.54
pIC50 (TRKa): 9.28

C[C@@H]1CCc2ncc(F)cc2[C@H]2CCCN2c2ccn3ncc(c3n2)C(=O)N1 [LOXO-195, reference compound]
microsomal CLint at 1 μM [1]: 186 µL/min/mg
half-life at 1 μM [1]: 7.45 min
% Remaining(45 min) [1]: 1.98%
pIC50 (Ba/F3 LMNA-NTRK1-G595R; BaF3, 72 hours, CTG): 7.92
pIC50 (Ba/F3 LMNA-NTRK1-G667C; BaF3, 72 hours, CTG): 8.20
pIC50 (Ba/F3 EVT6-NTRK3-G623R; BaF3, 72 hours, CTG): 6.84
CLint [2]: 82.65 µL/min/mg
half-life at 1 μM [2]: 16.8 min
% Remaining(45 min) [2]: 16.23%
microsomal CLint at 1 μM [3]: 152 µL/min/mg
half-life at 1 μM [3]: 9.12 min
% Remaining(45 min) [3]: 4.88%

Reference: patent US12428433B2, “Fluorine-containing heterocyclic derivatives with macrocyclic structure and use thereof” (ScinnoHub Pharmaceutical Co., Ltd, priority 2019, dated 2025)
